Data reported in PubChem BioAssay (NCI).
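Cultured in 96-well plates, cells were exposed to test compound for 48 hours across five concentrations. GI50 marks 50% less growth. TGI is the concentration that stops growth completely.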

Key:
Test in all cases: NCI tumour cell line growth inhibition, 48 h
XF 498 CNS = system: XF 498 CNS
M19-MEL melanoma = system: M19-MEL melanoma
DMS 114 small cell lung = system: DMS 114 small cell lung
DLD-1 colon = system: DLD-1 colon
HOP-18 NSCLC = system: HOP-18 NSCLC
RXF-631 renal = system: RXF-631 renal
LXFL 529 NSCLC = system: LXFL 529 NSCLC
DMS 273 small cell lung = system: DMS 273 small cell lung
P388 leukemia = system: P388 leukemia
SN12K1 renal = system: SN12K1 renal
P388/ADR leukemia = system: P388/ADR leukemia

Cn1c2[n+](c3nc(N)[nH]c(=O)c31)C1OC(C2)C(O)C1O (configuration not stated)
TGI (XF 498 CNS): > 100 µM
TGI (M19-MEL melanoma): > 100 µM
TGI (DMS 114 small cell lung): > 100 µM
TGI (DLD-1 colon): > 100 µM
TGI (HOP-18 NSCLC): > 100 µM
TGI (RXF-631 renal): > 100 µM
TGI (LXFL 529 NSCLC): > 100 µM
TGI (DMS 273 small cell lung): > 100 µM

CCOCC(=O)N(C)c1cccc2c3c(n(C)c12)CCCCC3
TGI (XF 498 CNS): > 100 µM
TGI (P388 leukemia): > 100 µM
TGI (M19-MEL melanoma): > 100 µM
TGI (DMS 114 small cell lung): > 100 µM
TGI (SN12K1 renal): > 100 µM
TGI (DLD-1 colon): > 100 µM
TGI (HOP-18 NSCLC): > 20.9 µM
TGI (DMS 273 small cell lung): > 31.6 µM
TGI (P388/ADR leukemia): > 100 µM

Nc1nnc(CCC(=O)Nc2cc(Cl)ccc2Cl)n1N
TGI (XF 498 CNS): > 100 µM
TGI (M19-MEL melanoma): > 100 µM
TGI (DMS 114 small cell lung): > 100 µM
TGI (DLD-1 colon): > 100 µM
TGI (HOP-18 NSCLC): > 100 µM
TGI (RXF-631 renal): > 100 µM
TGI (LXFL 529 NSCLC): > 100 µM
TGI (DMS 273 small cell lung): > 100 µM

COc1cccc(/C=N/[N-]C(N)=O)c1[O-].[Ni+2].[OH3+]
GI50 (XF 498 CNS): 0.152 µM
TGI (XF 498 CNS): 0.331 µM
